This note sets out measurements from US20090143361A1, “Pyrido[3,2-E]Pyrazines, Process For Preparing The Same, And Their Use As Inhibitors Of Phosphodiesterase 10” (ELBION GMBH, priority 2007, published 2009).

The structures appear in SMILES notation.

The IC50 is the concentration needed to halve the response being measured.

The target of the test is PDE10 from pig striatum (Sus scrofa, UniProt A0A287B941). Description: Inhibition of PDE10 from pig striatum ([3H]-cAMP SPA). The class given is biochemical. The settings on record: Table 8; read-out: PDE10 pig IC50. As to the method:
Phosphodiesterase isoenzyme 10 (PDE10) activity was determined in preparations of human recombinant PDE10A and PDE10 from pig striatum, respectively.
Striatum from male hybrid pigs (150 kg) were collected and frozen at −70° C.
At the day of preparation 0.5 g striatum was homogenised in 10 ml 50 mM Tris/Mg-buffer at 4° C. and centrifuged for one hour at 100000 g. The supernatant was removed and the pellet was resuspended in the same buffer, but containing 1% Triton and incubated for 45 min at 4° C. The membrane fraction was applied onto a 5 ml Hi Trap™ QHP column at the Akta-FPLC. After washing the column the bound PDE protein was eluted with an increasing sodium chloride gradient (O mM-500 mM sodium chloride) in 50 mM Tris/Mg-buffer at 4° C. in the presence of 1% Triton. […] The fractions with PDE10-activity were pooled and frozen in aliquots until use at −20° C.
PDE10 activity was determined in a one step procedure in microtiterplates. […] Nonspecific activity was tested without the enzyme. The reaction was initiated by addition of the substrate solution and was carried out at 37° C. for 30 minutes. Enzymatic activity was stopped by addition of 25 μl YSi-SPA-beads (Amersham-Pharmacia). One hour later the mixture was measured in a liquid scintillation counter for microtiterplates (Microbeta Trilux). To pipette the incubation mixture a robot Biomek (Fa. Beckman) is used. […] For determination of IC50 values the Hill-plot, 2-parameter-model, was used.
The phosphodiesterase isoenzyme 10 (PDE10) activity was determined in preparations of rat, pig and guinea pig striatum respectively. Striatum from male Wistar rats (180-200 g), male hybrid pigs (150 kg) and male guinea pigs (CRL (HA), 500 g) respectively were collected and frozen at −70° C.
At the day of preparation 0.5 g striatum was homogenized in 10 ml 50 mM Tris/Mg-buffer at 4° C. and centrifuged for one hour at 100000 g. The supernatant is called the cytosolic fraction and was removed and stored on ice. The pellet was resuspended in the same buffer, but containing 1% Triton and incubated for 45 min at 4° C. Both fractions were independently applied onto a 5 ml Hi Trap™ QHP column at the Akta-FPLC. After washing the columns the bound PDE protein was eluted with an increasing sodium chloride gradient (0 mM-500 mM sodium chloride) in 50 mM Tris/Mg-buffer at 4° C. for the cytosolic fraction and in the presence of 1% Triton for the membrane fraction. […] The fractions with PDE10-activity were pooled and frozen in aliquots until use at −20° C.
PDE10 activity was determined in a one step procedure in microtiterplates. […] Nonspecific activity was tested without the enzyme. The reaction was initiated by addition of the substrate solution and was carried out at 37° C. for 30 minutes. Enzymatic activity was stopped by addition of 25 μl YSi-SPA beads (Amersham-Pharmacia). One hour later the mixture was measured in a liquid scintillation counter for microtiterplates (Microbeta Trilux). To pipette the incubation mixture a robot Biomek (Fa. Beckman) is used. […] For determination of IC50 values the Hill-plot, 2-parameter-model, was used.
Take `COc1ccc2nc(C)c3c(C)nc(-c4ccc(C)cc4)n3c2n1` [Example 59, 2-Methoxy-6,7-dimethyl-9-(4-methylphenyl)imidazo[1,5-a]pyrido[3,2-e]pyrazine]: the IC50 fell in the range of 10 to 100 nM.
As for `COc1ccc2nc(C)c3c(C)nc(-c4ccco4)n3c2n1` [Example 60, 9-(2-Furyl)-2-methoxy-6,7-dimethylimidazo[1,5-a]pyrido[3,2-e]pyrazine], the concentration for half-maximal inhibition (IC50) was in the range of 10 to 100 nM.
The value for `COc1cccc(-c2nc(C)c3c(C)nc4ccc(OC)nc4n23)c1` [Example 62, 2-Methoxy-9-(3-methoxyphenyl)-6,7-dimethylimidazo[1,5-a]pyrido[3,2-e]pyrazine] was less than 10 nM; that for `COc1ccc2nc(C)c3c(C)nc(-c4cccc(OC(F)(F)F)c4)n3c2n1` [Example 63, 2-Methoxy-6,7-dimethyl-9-[3-(trifluoromethoxy)phenyl]imidazo[1,5-a]pyrido[3,2-e]pyrazine] was 10 to 100 nM; that for `COc1ccc2nc(C)c3c(C)nc(-c4ccc(OC(F)(F)F)cc4)n3c2n1` [Example 64, 2-Methoxy-6,7-dimethyl-9-[4-(trifluoromethoxy)phenyl]imidazo[1,5-a]pyrido[3,2-e]pyrazine] was 10 to 100 nM.
The value for `COc1ccc2nc(C)c3c(C)nc(-c4cccc(C)c4)n3c2n1` [Example 65, 2-Methoxy-6,7-dimethyl-9-(3-methylphenyl)imidazo[1,5-a]pyrido[3,2-e]pyrazine] was less than 10 nM.
Take `COc1ccc2nc(C)c3c(C)nc(-c4cccc(C(F)(F)F)c4)n3c2n1` [Example 66, 2-Methoxy-6,7-dimethyl-9-[3-(trifluoromethyl)phenyl]imidazo[1,5-a]pyrido[3,2-e]pyrazine]: the 50% inhibitory concentration (IC50) lay in the range of 10 to 100 nM.
The value for `COc1ccc2nc(C)c3c(C)nc(-c4ccc(C(F)(F)F)cc4)n3c2n1` [Example 67, 2-Methoxy-6,7-dimethyl-9-[4-(trifluoromethyl)phenyl]imidazo[1,5-a]pyrido[3,2-e]pyrazine] was 10 to 100 nM; that for `COc1ccc2nc(C)c3c(C)nc(-c4cccs4)n3c2n1` [Example 68, 2-Methoxy-6,7-dimethyl-9-(2-thienyl)imidazo[1,5-a]pyrido[3,2-e]pyrazine] was 10 to 100 nM.
The value for `COc1ccc2nc(C)c3c(C)nc(-c4cscc4C)n3c2n1` [Example 69, 2-Methoxy-6,7-dimethyl-9-(4-methyl-3-thienyl)imidazo[1,5-a]pyrido[3,2-e]pyrazine] was less than 10 nM.
The value for `COc1ccc2nc(C)c3c(C)nc(-c4ccccc4-c4ccccc4)n3c2n1` [Example 70, 9-Biphenyl-2-yl-2-methoxy-6,7-dimethylimidazo[1,5-a]pyrido[3,2-e]pyrazine] was 10 to 100 nM; that for `COc1ccc2nc(C)c3c(C)nc(-c4cccc(-c5ccccc5)c4)n3c2n1` [Example 71, 9-Biphenyl-3-yl-2-methoxy-6,7-dimethylimidazo[1,5-a]pyrido[3,2-e]pyrazine] was 10 to 100 nM.
Turning to `COc1ccc2nc(C)c3c(C)nc(-c4ccc(-c5ccccc5)cc4)n3c2n1` [Example 72, 9-Biphenyl-4-yl-2-methoxy-6,7-dimethylimidazo[1,5-a]pyrido[3,2-e]pyrazine], the IC50 was greater than 100 nM.
The value for `COc1ccc2nc(C)c3c(C)nc(-c4cccc(C#N)c4)n3c2n1` [Example 73, 3-(2-Methoxy-6,7-dimethylimidazo[1,5-a]pyrido[3,2-e]pyrazin-9-yl)benzonitrile] was 10 to 100 nM; that for `COc1ccc2nc(C)c3c(C)nc(-c4ccc(C#N)cc4)n3c2n1` [Example 74, 4-(2-Methoxy-6,7-dimethylimidazo[1,5-a]pyrido[3,2-e]pyrazin-9-yl)benzonitrile] was 10 to 100 nM.
The value for `COc1ccc2nc(C)c3c(C)nc(C#Cc4ccccc4)n3c2n1` [Example 75, 2-Methoxy-6,7-dimethyl-9-(phenylethynyl)imidazo[1,5-a]pyrido[3,2-e]pyrazine] was 10 to 100 nM; that for `COc1ccc2nc(C)c3c(C)nc(C#Cc4ccc(F)cc4)n3c2n1` [Example 76, 9-[(4-Fluorophenyl)ethynyl]-2-methoxy-6,7-dimethylimidazo[1,5-a]pyrido[3,2-e]pyrazine] was greater than 100 nM; that for `COc1ccc(C#Cc2nc(C)c3c(C)nc4ccc(OC)nc4n23)cc1` [Example 77, 2-Methoxy-9-[(4-methoxyphenyl)ethynyl]-6,7-dimethylimidazo[1,5-a]pyrido[3,2-e]pyrazine] was 10 to 100 nM.
Take `COc1ccc2nc(C)c3c(C)nc(-c4cc(C)ccc4Cl)n3c2n1` [Example 78, 9-(2-Chloro-5-methylphenyl)-2-methoxy-6,7-dimethylimidazo[1,5-a]pyrido[3,2-e]pyrazine]: the IC50 is less than 10 nM.
The value for `COc1ccc2nc(C)c3c(C)nc(-c4cc(Cl)ccc4C)n3c2n1` [Example 79, 9-(5-Chloro-2-methylphenyl)-2-methoxy-6,7-dimethylimidazo[1,5-a]pyrido[3,2-e]pyrazine] was less than 10 nM; that for `COc1ccc2nc(C)c3c(C)nc(-c4ccc(Cl)cc4C)n3c2n1` [Example 80, 9-(4-Chloro-2-methylphenyl)-2-methoxy-6,7-dimethylimidazo[1,5-a]pyrido[3,2-e]pyrazine] was less than 10 nM.
The value for `COc1ccc2nc(C)c3c(C)nc(-c4cc(F)ccc4C)n3c2n1` [Example 81, 9-(5-Fluoro-2-methylphenyl)-2-methoxy-6,7-dimethylmidazo[1,5-a]pyrido[3,2-e]pyrazine] was less than 10 nM.
Regarding `COc1ccc2nc(C)c3c(C)nc(-c4ccc(F)cc4C)n3c2n1` [Example 82, 9-(4-Fluoro-2-methylphenyl)-2-methoxy-6,7-dimethylmidazo[1,5-a]pyrido[3,2-e]pyrazine], the 50% inhibitory concentration (IC50) was less than 10 nM.
As to `COc1ccc2nc(C)c3c(C)nc(-c4cc(F)ccc4OC)n3c2n1` [Example 83, 9-(5-Fluoro-2-methoxyphenyl)-2-methoxy-6,7-dimethylimidazo[1,5-a]pyrido[3,2-e]pyrazine], the 50% inhibitory concentration (IC50) fell in the range of 10 to 100 nM.
The value for `COc1ccc2nc(C)c3c(C)nc(-c4cc(Cl)ccc4OC)n3c2n1` [Example 84, 9-(5-Chloro-2-methoxyphenyl)-2-methoxy-6,7-dimethylimidazo[1,5-a]pyrido[3,2-e]pyrazine] was 10 to 100 nM; that for `COc1ccc2nc(C)c3c(C)nc(-c4ccc(C(N)=O)cc4)n3c2n1` [Example 85, 4-(2-Methoxy-6,7-dimethylimidazo[1,5-a]pyrido[3,2-e]pyrazin-9-yl)benzamide] was less than 10 nM.
`COc1ccc2nc(C)c3c(C)nc(-c4ccc(F)cc4OC)n3c2n1` [Example 86, 9-(4-Fluoro-2-methoxyphenyl)-2-methoxy-6,7-dimethylmidazo[1,5-a]pyrido[3,2-e]pyrazine]: the half-inhibitory concentration (IC50) fell in the range of 10 to 100 nM.
The value for `COc1ccc2nc(C)c3c(C)nc(-c4cccc(Cl)c4C)n3c2n1` [Example 87, 9-(3-Chloro-2-methylphenyl)-2-methoxy-6,7-dimethylimidazo[1,5-a]pyrido[3,2-e]pyrazine] was less than 10 nM; that for `COc1ccc2nc(C)c3c(C)nc(-c4cccc(F)c4C)n3c2n1` [Example 88, 9-(3-Fluoro-2-methylphenyl)-2-methoxy-6,7-dimethylmidazo[1,5-a]pyrido[3,2-e]pyrazine] was less than 10 nM; that for `COc1ccc2nc(C)c3c(C)nc(-c4cccc(Cl)c4Cl)n3c2n1` [Example 89, 9-(2,3-dichlorophenyl)-2-methoxy-6,7-dimethylimidazo[1,5-a]pyrido[3,2-e]pyrazine] was less than 10 nM.
